In experiment [1] the target is T1, Vanilloid receptor (Rattus norvegicus, UniProt Q9ERZ8+Q9WUD2+O35433). The experiment is described as follows: Calcium +2 uptake into Dorsal Root Ganglion(DRG) neurons. In kind it is functional, tissue-based.
Experiment [2] deals with Transient receptor potential cation channel subfamily V member 1 (Rattus norvegicus) (UniProt O35433). The experiment is described as follows: Relative potency(RTX) against Dorsal Root Ganglion (DRG) membranes using RTX binding assay. In kind it is functional, tissue-based.
Experiment [3] deals with T1, Vanilloid receptor. The experiment in a line: Ability to stimulate uptake of Calcium into Dorsal Root Ganglion(DRG) neurons. In kind it is functional, tissue-based.
In experiment [4] the target is Transient receptor potential cation channel subfamily V member 1 (Rattus norvegicus, UniProt O35433). The experiment is described as follows: Binding affinity against Vanilloid receptor in dorsal Root Ganglion (DRG) membranes using [3H]RTX binding assay. In kind it is tissue-based.
Experiment [5] has as its target Transient receptor potential cation channel subfamily V member 1 (Rattus norvegicus) (UniProt O35433). The experiment is described as follows: Binding affinity against Vanilloid receptor in dorsal root ganglion (DRG) membranes relative to resinferatoxin (RTX); not tested. In kind it is tissue-based.
Experiment [6] shares this target. The experiment is described as follows: Relative potency against RTX binding to Dorsal Root Ganglion (DRG) membranes. Type of experiment: functional, tissue-based.

We go through 18 compounds from ChEMBL document CHEMBL1129076 (J Med Chem, 1996).

Transient receptor potential cation channel subfamily V member 1 (Rattus norvegicus), sequence (O35433 whole entry): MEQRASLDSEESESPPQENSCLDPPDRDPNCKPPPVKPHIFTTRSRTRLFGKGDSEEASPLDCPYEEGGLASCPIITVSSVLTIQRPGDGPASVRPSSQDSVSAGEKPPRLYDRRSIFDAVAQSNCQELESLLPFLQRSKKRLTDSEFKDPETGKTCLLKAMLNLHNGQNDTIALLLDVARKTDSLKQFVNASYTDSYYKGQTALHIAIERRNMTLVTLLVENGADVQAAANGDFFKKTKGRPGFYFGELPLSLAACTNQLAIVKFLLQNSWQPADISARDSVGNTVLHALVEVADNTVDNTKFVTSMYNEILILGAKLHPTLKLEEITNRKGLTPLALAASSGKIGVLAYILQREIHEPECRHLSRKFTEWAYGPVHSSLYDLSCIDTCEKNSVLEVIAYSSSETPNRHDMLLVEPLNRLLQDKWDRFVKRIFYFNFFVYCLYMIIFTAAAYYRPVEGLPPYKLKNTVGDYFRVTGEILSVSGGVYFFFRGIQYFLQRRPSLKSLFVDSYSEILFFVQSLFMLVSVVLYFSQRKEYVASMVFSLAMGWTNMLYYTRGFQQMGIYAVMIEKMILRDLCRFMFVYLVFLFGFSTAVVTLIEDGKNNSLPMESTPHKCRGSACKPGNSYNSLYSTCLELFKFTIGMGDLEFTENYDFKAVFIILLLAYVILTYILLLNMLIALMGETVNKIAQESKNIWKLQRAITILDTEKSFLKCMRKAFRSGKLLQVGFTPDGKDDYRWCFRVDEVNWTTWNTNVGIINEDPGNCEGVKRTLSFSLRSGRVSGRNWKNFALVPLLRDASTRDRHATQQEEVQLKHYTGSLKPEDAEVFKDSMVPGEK
Transient receptor potential cation channel subfamily V member 1, sequence (O35433 whole entry): as above

Consider `C=C(C)[C@@]12C[C@@H](C)C34OC(Cc5ccccc5)(OC1[C@@H]3C=C(COC(C)=O)C[C@]1(O)C(=O)C(C)=C[C@@H]41)O2` (stereo partly drawn), for which, at Vanilloid receptor [1], the EC50 was above 2000 nM.
Still for that read-out and setting: the figure for `C=C(C)[C@@]12C[C@@H](C)C34OC(Cc5ccccc5)(OC1[C@@H]3C=C(COC(=O)Cc1cccc(OC)c1)C[C@]1(O)C(=O)C(C)=C[C@@H]41)O2` (stereo partly drawn) is 7.89 nM; for `CCCCCCCCC(=O)NCc1ccc(OCCN)c(OC)c1` it is 410 nM.
As to `CCCCCCCCC(=O)NCc1cccc(OC)c1`, on Vanilloid receptor [1], the EC50 is listed as above 100000 nM.
Still for that read-out and setting: as for `CCCCCCCCC(=O)NCc1ccc(OC)c(OC)c1`, the figure is above 6410 nM.
Compound `C=C(C)[C@@]12C[C@@H](C)C34OC(Cc5ccccc5)(OC1[C@@H]3C=C(CNC(=O)Cc1ccc(O)c(OC)c1)C[C@]1(O)C(=O)C(C)=C[C@@H]41)O2` (stereo partly drawn) showed a Relative Potency in experiment [2] of 0.013. On Vanilloid receptor [3], the half-maximal effective concentration (EC50) turned out to be 122 nM. In experiment [4], this compound showed a Ki of 10.6 nM. This compound also had a Relative affinity in experiment [5] of 0.011.
`COc1cc(CC(=O)OC/C=C/[C@H]2[C@H]3OC4(Cc5ccccc5)O[C@H]3CC[C@H]2O4)ccc1O`: the EC50 on Vanilloid receptor [1] is recorded as 9150 nM.
Compound `C=C(C)[C@@]12C[C@@H](C)C34OC(C)(OC1[C@@H]3C=C(COC(=O)Cc1ccc(O)c(OC)c1)C[C@]1(O)C(=O)C(C)=C[C@@H]41)O2` (stereo partly drawn) returned a Relative Potency in experiment [2] of 0.122. The EC50 at Vanilloid receptor [3] was determined as 13.2 nM. In experiment [4], this compound showed a Ki of 3.2 nM. In experiment [5], the Relative affinity is 0.038.
Take `COc1cc(CC(=O)OCC2=C[C@H]3[C@@H]4C(C)(C)[C@]4(OC(C)=O)C(OC(C)=O)[C@@H](C)C3(O)[C@@H]3C=C(C)C(=O)[C@@]3(OC)C2)ccc1O` (stereo partly drawn): the EC50 at Vanilloid receptor [1] was 8510 nM.
Same read-out and setting: the figure for `C=C(C)[C@@]12C[C@@H](C)C34OC(Cc5ccccc5)(OC1[C@@H]3C=C(COC(=O)Cc1ccc(OC)c(N=[N+]=[N-])c1)C[C@]1(O)C(=O)C(C)=C[C@@H]41)O2` (stereo partly drawn) is 10.64 nM.
`C=C(C)[C@@]12C[C@@H](C)C34OC(c5ccccc5)(OC1[C@@H]3C=C(COC(=O)Cc1ccc(O)c(OC)c1)C[C@]1(O)C(=O)C(C)=C[C@@H]41)O2` (stereo partly drawn) returned a Relative Potency in experiment [2] of 0.21. Besides, at Vanilloid receptor [3], the EC50 came out at 7.6 nM. Besides, the affinity in experiment [4], expressed as Ki, was 0.17 nM. In experiment [5], this compound displayed a Relative affinity of 0.706.
For `C=C(C)C12C[C@@H](C)C34OC(Cc5ccccc5)(OC1[C@@H]3C=C(COC(=O)Cc1ccc(OCCN)c(OC)c1)C[C@]1(O)C(=O)C(C)=CC41)O2` (single isomer, unassigned), in that order: 0.123, 13.04 nM, 4.3 nM and 0.028.
With `C=C(C)C12C[C@@H](C)C34OC(Cc5ccccc5)(OC1[C@@H]3C=C(COC(=O)Cc1ccccc1)C[C@]1(O)C(=O)C(C)=CC41)O2` (single isomer, unassigned), the EC50 on Vanilloid receptor [1] and on Vanilloid receptor [3] was 10.22 nM in each case. The compound also gave a Relative Potency in experiment [6] of 0.157. In experiment [4], this compound showed a Ki of 8.3 nM. The compound further displayed a Relative affinity in experiment [5] of 0.015.
In experiment [2], `C=C(C)C12C[C@@H](C)C34OC(Cc5ccccc5)(OC1[C@@H]3C=C(COC(=O)Cc1ccc(OC)c(OC)c1)C[C@]1(O)C(=O)C(C)=CC41)O2` (single isomer, unassigned) had a Relative Potency of 0.107. The EC50 on Vanilloid receptor [3] was found to be 14.89 nM. The affinity in experiment [4] corresponds to a Ki of 1 nM. The compound also registered a Relative affinity in experiment [5] of 0.12.
Consider `C=C(C)C12C[C@@H](C)C34OC(Cc5ccccc5)(OC1[C@@H]3C=C(COC(=O)Cc1ccc(O)c(OC)c1)C[C@]1(OC)C(=O)C(C)=C[C@@H]41)O2` (single isomer, unassigned), for which, on Vanilloid receptor [1], the EC50 was 5.3 nM.
In turn, `C=C(C)C12C[C@@H](C)C34OC(Cc5ccccc5)(OC1[C@@H]3C=C(CO)C[C@]1(O)C(=O)C(C)=CC41)O2` (single isomer, unassigned) showed a Relative Potency in experiment [2] below 8e-05. For the same compound, on Vanilloid receptor [3], the EC50 was above 20000 nM. The compound further registered a Ki in experiment [4] above 10000 nM. Further, the Relative affinity in experiment [5] is below 1e-05.
Turning to `CCCCCCCCC(=O)NCc1ccc(O)c(OC)c1` [NONIVAMIDE], at Vanilloid receptor [1], the EC50 is above 550 nM.
The compound `C=C(C)[C@]12C[C@@H](C)[C@@]34O[C@](Cc5ccccc5)(O[C@@H]1[C@@H]3C=C(COC(=O)Cc1ccc(O)c(OC)c1)C[C@]1(O)C(=O)C(C)=C[C@@H]41)O2` [RESINIFERATOXIN] had a Relative Potency in experiment [2] of 1. Also, at Vanilloid receptor [3], the EC50 worked out at 1.6 nM. The affinity in experiment [4] corresponds to a Ki of 0.12 nM. The Relative affinity in experiment [5] was 1.
